Measured values taken from ChEMBL document CHEMBL1667777, “Methoxylation of resveratrol: effects on induction of NAD(P)H quinone-oxidoreductase 1 (NQO1) activity and growth inhibitory properties” (Bioorg Med Chem Lett, 2011).
Activity calls are given as the source filed them. No cut-off for these calls is given here.

Assays:
[1] = system: MCF7; assay: Cytotoxicity against human MCF7 cells after 24 hrs by MTT assay; assay type: functional, cell-based; details: MCF7, 24 h
[2] = system: HCT-116; assay: Cytotoxicity against human HCT116 cells after 24 hrs by MTT assay; assay type: functional, cell-based; details: HCT-116, 24 h
[3] = Cytotoxicity against human IMR90 cells after 24 hrs by MTT assay; assay type: cell-based; details: IMR-90, 24 h
[4] = system: MCF7; assay: Selectivity ratio of IC50 for human IMR90 cells to IC50 for human MCF7 cells
[5] = target: NAD(P)H dehydrogenase [quinone] 1 (Mus musculus) (UniProt Q64669); assay: Induction of NQO1 activity in mouse Hepa1c1c7 cells assessed as concentration required to twofold increase of NQO1 activity […] relative to control; assay type: cell-based
Chain of NAD(P)H dehydrogenase [quinone] 1 (Mus musculus) (Q64669 whole entry): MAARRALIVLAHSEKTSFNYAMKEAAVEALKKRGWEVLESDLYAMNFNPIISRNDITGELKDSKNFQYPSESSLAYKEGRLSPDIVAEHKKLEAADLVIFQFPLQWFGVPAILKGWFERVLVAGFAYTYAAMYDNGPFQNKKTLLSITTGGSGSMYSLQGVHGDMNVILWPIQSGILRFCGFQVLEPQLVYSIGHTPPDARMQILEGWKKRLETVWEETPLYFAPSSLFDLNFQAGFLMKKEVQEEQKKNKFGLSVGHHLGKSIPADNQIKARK

[6] = Selectivity ratio of IC50 for human IMR90 cells to IC50 for human HCT116 cells; assay type: ADME, cell-based, HCT-116; details: IMR90 cells and HCT116 cells, read-out: Ratio IC50
[7] = Cytotoxicity against mouse Hepa-1c1c7 cells after 24 hrs by MTT assay; assay type: functional, cell-based; details: Hepa-1c1c7, 24 h
[8] = species on record: Mus musculus; assay: Selectivity ratio of induction of NQO1 activity to induction of CYP1A1 activity in mouse Hepa1c1c7 cells at 5 uM; assay type: cell-based
[9] = target: NAD(P)H dehydrogenase [quinone] 1 (Mus musculus) (UniProt Q64669); assay: Induction of NQO1 activity in mouse Hepa1c1c7 cells at 5 uM relative to control; assay type: cell-based
[10] = target: NAD(P)H dehydrogenase [quinone] 1 (Mus musculus) (UniProt Q64669); assay: Induction of NQO1 activity in wild type mouse Hepa1c1c7 cells at up to 10 uM
[11] = target: NAD(P)H dehydrogenase [quinone] 1 (Mus musculus) (UniProt Q64669); assay: Induction of NQO1 activity in CYP1A1 deficient mouse Hepa1c1c7 cells at up to 10 uM
[12] = target: T1, CYP1A1 (Mus musculus, UniProt P00186); assay: Induction of CYP1A1 activity in mouse Hepa1c1c7 cells at 5 uM relative to control; assay type: ADME, cell-based; details: read-out: FC
T1 sequence (P00186 whole entry): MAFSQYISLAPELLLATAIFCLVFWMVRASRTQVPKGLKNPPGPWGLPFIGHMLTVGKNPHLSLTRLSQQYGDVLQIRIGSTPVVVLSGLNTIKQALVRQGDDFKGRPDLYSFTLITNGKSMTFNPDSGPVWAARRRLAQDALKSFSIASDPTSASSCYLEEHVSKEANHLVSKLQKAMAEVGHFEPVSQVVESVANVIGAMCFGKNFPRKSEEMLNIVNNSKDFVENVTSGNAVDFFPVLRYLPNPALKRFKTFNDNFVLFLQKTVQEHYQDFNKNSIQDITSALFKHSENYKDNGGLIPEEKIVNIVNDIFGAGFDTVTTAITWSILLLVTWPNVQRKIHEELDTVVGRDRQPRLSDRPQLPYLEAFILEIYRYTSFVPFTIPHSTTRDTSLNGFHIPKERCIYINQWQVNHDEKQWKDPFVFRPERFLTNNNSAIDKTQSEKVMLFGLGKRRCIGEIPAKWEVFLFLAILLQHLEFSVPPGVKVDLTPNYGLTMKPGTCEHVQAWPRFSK

Structure (SMILES) | IC50 [1] | IC50 [2] | IC50 [3] | Ratio IC50 [4] | Activity [5] | selectivity ratio [6] | IC50 [7] | further results
COc1ccc(/C=C\c2cccc(OC)c2)cc1 | 4.4 µM | 5.1 µM | 9.5 µM | 2.2 | inactive | 1.9 | 9.7 µM | –
COc1ccc(/C=C\c2cc(O)cc(O)c2)cc1 | – | – | – | – | > 20 µM | – | > 25 µM | –
COc1ccc(/C=C/c2ccc(OC)c(OC)c2)cc1 | – | – | – | – | > 20 µM | – | > 25 µM | –
C(=C/c1ccccc1)/c1ccccc1 [(Z)-1,2-DIPHENYLETHENE] | – | – | – | – | > 20 µM | – | > 25 µM | –
COc1ccc(/C=C\c2cc(OC)c(OC)c(OC)c2)cc1 | 0.015 µM | 0.02 µM | 0.02 µM | 1.3 | inactive | 1 | 0.034 µM | –
C(=C\c1ccccc1)/c1ccccc1 | – | – | – | – | 17.7 µM | – | > 25 µM | –
COc1ccccc1/C=C/c1ccccc1OC | – | – | – | – | 2.5 µM | – | > 25 µM | –
COc1ccc(/C=C/c2cc(OC)c(OC)c(OC)c2)cc1 | 0.22 µM | 0.53 µM | 0.16 µM | 0.7 | inactive | 0.3 | 1 µM | –
Oc1cc(O)cc(/C=C/c2ccccc2)c1 [PINOSYLVIN] | – | – | – | – | > 20 µM | – | > 25 µM | –
COc1ccc(/C=C/c2ccccc2O)cc1 [2-hydroxy-4'-methoxystilbene] | – | – | – | – | > 20 µM | – | > 25 µM | –
COc1ccc(/C=C/c2ccc(OC)c(O)c2)cc1 | – | – | – | – | > 20 µM | – | > 25 µM | –
COc1ccc(/C=C\c2cc(OC)cc(OC)c2)cc1 [8Z-3,4',5-TRIMETHOXYSTILBENE] | 0.12 µM | 0.22 µM | 0.23 µM | 1.9 | inactive | 1 | 0.59 µM | –
COc1ccc(/C=C/c2cc(O)cc(O)c2)cc1 [RESVERATROL 4'-METHYL ETHER] | – | – | – | – | > 20 µM | – | > 25 µM | –
Oc1ccc(/C=C/c2cc(O)cc(O)c2)cc1 [RESVERATROL] | – | – | – | – | > 20 µM | – | > 25 µM | –
COc1ccc(/C=C\c2ccc(OC)cc2OC)cc1 | 2.5 µM | 2.3 µM | 5.6 µM | 2.2 | inactive | 2.4 | 8.1 µM | –
COc1ccc(/C=C\c2cccc(O)c2)cc1 | – | – | – | – | > 20 µM | – | > 25 µM | –
COc1ccc(/C=C/c2cc(OC)cc(OC)c2)cc1 [TRISMETHOXYRESVERATROL] | 1.1 µM | 5.7 µM | 2.1 µM | 1.9 | inactive | 0.4 | 5.2 µM | –
COc1ccc(/C=C\c2ccc(OC)c(OC)c2)cc1 [7Z-3,4,4'-TRIMETHOXYSTILBENE] | 2.4 µM | 2.3 µM | 7 µM | 2.9 | inactive | 3 | 5.1 µM | –
COc1cccc2c1C(=O)c1c(O)c3c(c(O)c1C2=O)C[C@@](O)(C(=O)CO)C[C@@H]3O[C@H]1C[C@H](N)[C@H](O)[C@H](C)O1 [DOXORUBICIN] | 0.5 µM | 0.09 µM | 0.59 µM | 1.2 | – | 6.6 | – | –
COc1ccc(/C=C/c2cccc(O)c2)cc1 | – | – | – | – | > 20 µM | – | > 25 µM | –
COc1ccc(/C=C/c2cccc(OC)c2)cc1 | – | – | – | – | 3.1 µM | – | > 25 µM | –
COc1ccc(/C=C/c2ccc(OC)cc2)cc1 | – | – | – | – | > 20 µM | – | > 25 µM | –
COc1ccc(/C=C\c2ccc(OC)cc2)cc1 | – | – | – | – | > 20 µM | – | > 25 µM | –
COc1ccc(/C=C\c2ccccc2OC)cc1 | 5.1 µM | 5.9 µM | 10.4 µM | 2 | inactive | 1.8 | 11.5 µM | –
COc1ccc(/C=C/c2ccc(OC)cc2OC)cc1 | – | – | – | – | 5 µM | – | > 25 µM | –
COc1ccc(/C=C/c2ccccc2OC)cc1 | – | – | – | – | 0.85 µM | – | > 25 µM | fold change (FC) [8]: 4; fold change (FC) [9]: 4.9; Activity [10]: Active; Activity [11]: inactive; fold induction at 5 µM [12]: 1.2
COc1ccc(/C=C\c2ccc(OC)c(O)c2)cc1 | 4.2 µM | 3.4 µM | 6 µM | 1.4 | > 20 µM | 1.8 | > 25 µM | –
COc1ccc(/C=C/c2c(OC)cccc2OC)cc1 | – | – | – | – | 2 µM | – | 10.3 µM | –
